Source: patent US20260015363A1, “SUBSTITUTED PYRIMIDINE-FUSED RING INHIBITOR, METHOD FOR PREPARING SAME, AND USE THEREOF” (Suzhou Zelgen Biopharmaceuticals Co., Ltd., priority 2022, published 2026)
Counter-ions that a name gives are not always drawn.

Columns and labels:
SW480 (G12V) = experiment: KRAS mutant cell proliferation inhibition assay (CellTiter-Glo 3D), SW480; type: cell-based; conditions: Homo sapiens, 168 h, SW480 (G12V) cells, 7 days
Experimental: (§1) Positive control: MRTX1133
(§2) • (a) The cells were thawed in T75 cell culture flasks: • (b) When 80%-90% cell confluence was achieved, the cells were passaged.
(§3) The diluted test compound was added to a 384-well cell culture plate using a nanoliter pipetting system, and replicate wells were set. An equal volume of medium was added to the positive control group; an equal volume of DMSO was added to the negative control group. The plate was centrifuged at 1000 rpm at room temperature for 1 min.
(§4) The cells were seeded into a) 384-well culture plate. An equal volume of cells was added to the negative control group, and only an equal volume of medium was added to the positive control group. The plate was centrifuged at 1000 rpm at room temperature for 1 min. The final DMSO concentration in the final compound was 0.5%. The plate was incubated in a thermostatic incubator at 37° C. with 5% CO2 for 7 days.
(§5) CellTiter-Glo® 3D was added to b) 384-well cell culture plate at 20 μL/well. The plate was shaken at 320 rpm in the dark for 20 min, and incubated at room temperature in the dark for 2 h. The luminescence values were read using an Envision multi-mode microplate reader.
(§6) The inhibition rates (IRs) of the test compounds were calculated according to the following formula: IR (%)=(1−(RLU compound−RLU blank control)/(RLU vehicle control−RLU blank control))×100%. The inhibition rates of the compounds at different concentrations were calculated in Excel, and then inhibition curves were plotted and relevant parameters including minimum inhibition rate, maximum inhibition rate and IC50 were calculated using GraphPad Prism software.

AsPC-1 (G12D) = experiment: KRAS mutant cell proliferation inhibition assay (CellTiter-Glo 3D), AsPC-1; type: cell-based, human; conditions: Homo sapiens, ASPC1, 168 h, AsPC-1 (G12D) cells, 7 days
Experimental: as §1, §2, §3, §4, §5, §6

IC50 (SW480 (G12V)) [nM]	IC50 (AsPC-1 (G12D)) [nM]	SMILES
482	732	CN(c1nc(OC[C@@]23CCCN2C[C@@]2(CC2(F)F)C3)nc2c(F)c(-c3cc(N)cc(Cl)c3C(F)(F)F)ncc12)[C@H]1C[C@@H]1F [Example A-46, 7-(5-Amino-3-chloro-2-(trifluoromethyl)phenyl)-2-(((15,7a'S)-2,2-difluorodihydro-1′H,3′H-spiro[cyclopropane-1,2′-pyrrolizin]-7a′ (5′H)-yl)methoxy)-8-fluoro-N-((trans)-2-fluorocyclopropvl)-N-methylpyrido[4,3-d]pyrimidin-4-amine]
336	–	Nc1cc(Cl)c(C(F)(F)F)c(-c2ncc3c(N4CC5COC(C5)C4)nc(OC[C@@]45CCCN4C[C@@]4(CC4(F)F)C5)nc3c2F)c1 (stereo partly drawn) [Example A-32, 3-(4-(6-Oxa-3-azabicyclo[4.2.1]nonan-3-yl)-2-(((1S,7a'S)-2,2-difluorodihydro-1′H,3′H-spiro[cyclopropane-1,2′-pyrrolizin]-7a′ (5′H)-yl)methoxy)-8-fluoropyrido[4,3-d]pyrimidin-7-yl)-5-chloro-4-(trifluoromethyl)aniline]
–	> 1000	CCc1c(F)ccc2cc(O)cc(-c3ncc4c(N(C)C5CC5)nc(OC[C@@]56CCCN5C[C@@]5(CC5(F)F)C6)nc4c3F)c12 [Example A-40, 4-(4-(Cyclopropyl(methyl)amino)-2-(((1S,7a'S)-2,2-difluorodihydro-1′H,3′ H-spiro[cyclopropane-1,2′-pyrrolizin]-7a′ (5′H)-yl)methoxy) 8-fluoropyrido[4,3-d]pyrimidin-7-yl)-5-ethyl-6-fluoronaphthalen-2-ol]
–	986	CC(C1CC1)N(C)c1nc(OC[C@@]23CCCN2C[C@@]2(CC2(F)F)C3)nc2c(F)c(-c3cc(N)cc(Cl)c3C(F)(F)F)ncc12 (stereo partly drawn) [Example A-43, 7-(5-Amino-3-chloro-2-(trifluoromethyl)phenyl)-N-(1-cyclopropylethyl)-2-(((1.S,7a'S)-2,2-difluorodihydro-1′H,3′H-spiro[cyclopropane-1,2′-pyrrolizin]-7a′ (5′H)-yl)methoxy)-8-fluoro-N-methylpyrido[4,3-d]pyrimidin-4-amine trifluoroacetate]
–	> 1000	CN(c1nc(OC[C@@]23CCCN2C[C@@]2(CC2(F)F)C3)nc2c(F)c(-c3cc(N)cc(Cl)c3C(F)(F)F)ncc12)C1CC1 [Example A-41, 7-(5-Amino-3-chloro-2-(trifluoromethyl)phenyl)-N-cyclopropyl-2-(((1S,7a'S)-2,2-difluorodihydro-1′H,3′H-spiro[cyclopropane-1,2′-pyrrolizin]-7a′ (5′H)-yl)methoxy)-8-fluoro-N-methylpyrido[4,3-d]pyrimidin-4-amine]
–	> 1000	CCc1c(F)ccc2cc(O)cc(-c3ncc4c(N(C)C(C)C5CC5)nc(OC[C@@]56CCCN5C[C@@]5(CC5(F)F)C6)nc4c3F)c12 (stereo partly drawn) [Example A-42, 4-(4-((1-Cyclopropylethyl)(methyl)amino)-2-(((15,7a'S)-2,2-difluorodihydro-1′H,3′H-spiro[cyclopropane-1,2′-pyrrolizin]-7a′ (5′H)-yl)methoxy)-8-fluoropyrido[4,3-d]pyrimidin-7-yl)-5-ethyl-6-fluoronaphthalen-2-ol trifluoroacetate]
168	–	CCc1c(F)ccc2cc(O)cc(-c3ncc4c(N5CC6COC(C6)C5)nc(OC[C@@]56CCCN5C[C@@]5(CC5(F)F)C6)nc4c3F)c12 (stereo partly drawn) [Example A-33]

Continued, compound first:

SMILES	IC50 (SW480 (G12V)) [nM]	IC50 (AsPC-1 (G12D)) [nM]
CCc1c(F)ccc2cc(O)cc(-c3ncc4c(N5CCOCC(F)C5)nc(OC[C@@]56CCCN5C[C@@]5(CC5(F)F)C6)nc4c3F)c12 (stereo partly drawn) [Example A-34, 4-(2-(((1S,7a'S)-2,2-Difluorodihydro-1′H,3′H-spiro[cyclopropane-1,2′-pyrrolizin]-7a′ (5′H)-yl)methoxy)-8-fluoro-4-(6-fluoro-1,4-oxazepan-4-yl)pyrido[4,3-d]pyrimidin-7-yl)-5-ethyl-6-fluoronaphthalen-2-ol]	66.7	–
CCc1c(F)ccc2cc(O)cc(-c3ncc4c(N5CC6(CCO6)C5)nc(OC[C@@]56CCCN5C[C@@]5(CC5(F)F)C6)nc4c3F)c12 [Example A-23, 4-(2-(((1S,7a'S)-2,2-Difluorodihydro-1′H,3′H-spiro[cyclopropane-1,2′-pyrrolizin]-7a′ (5′H)-yl)methoxy)-8-fluoro-4-(1-oxa-6-azaspiro[3.4]heptan-6-yl)pyrido[4,3-d]pyrimidin-7-yl)-5-ethyl-6-fluoronaphthalen-2-ol]	–	> 1000
CCc1c(F)ccc2cc(O)cc(-c3ncc4c(N5CCC[C@]6(CCO6)C5)nc(OC[C@@]56CCCN5C[C@@]5(CC5(F)F)C6)nc4c3F)c12 (single isomer, unassigned) [Example A-16B]	660	387
CCc1c(F)ccc2cc(O)cc(-c3ncc4c(N5CCCCC(F)C5)nc(OC[C@@]56CCCN5C[C@@]5(CC5(F)F)C6)nc4c3F)c12 (stereo partly drawn) [Example A-36, 4-(2-(((1S,7a'S)-2,2-Difluorodihydro-1′H,3′H-spiro[cyclopropane-1,2′-pyrrolizin]-7a′ (5′H)-yl)methoxy)-8-fluoro-4-(3-fluoroazepan-1-yl)pyrido[4,3-d]pyrimidin-7-yl)-5-ethyl-6-fluoronaphthalen-2-ol]	102	–
CCc1c(F)ccc2cc(O)cc(-c3ncc4c(N5CCC6CCC(C5)O6)nc(OC[C@@]56CCCN5C[C@@]5(CC5(F)F)C6)nc4c3F)c12 (stereo partly drawn) [Example A-31]	651	736
C#Cc1c(F)ccc2cc(O)cc(-c3ncc4c(N5CCCOC6CC65)nc(OC[C@@]56CCCN5C[C@@]5(CC5(F)F)C6)nc4c3F)c12 (stereo partly drawn) [Example A-29, 4-(4-((cis)-2-Oxa-6-azabicyclo[5.1.0]octan-6-yl)-2-(((1,5,7a'S)-2,2-difluorodihydro-1′H,3′H-spiro[cyclopropane-1,2′-pyrrolizin]-7a′ (5′H)-yl)methoxy)-8-fluoropyrido[4,3-d]pyrimidin-7-yl)-5-ethynyl-6-fluoronaphthalen-2-ol]	2.1	4.85
CCc1c(F)ccc2cc(O)cc(-c3ncc4c(N5CCC6(CCO6)C5)nc(OC[C@@]56CCCN5C[C@@]5(CC5(F)F)C6)nc4c3F)c12 (stereo partly drawn) [Example A-22, 4-(2-(((1.S,7a'S)-2,2-Difluorodihydro-1′H,3′H-spiro[cyclopropane-1,2′-pyrrolizin]-7a′ (5′H)-yl)methoxy)-8-fluoro-4-(1-oxa-6-azaspiro[3.4]octan-6-yl)pyrido[4,3-d]pyrimidin-7-yl)-5-ethyl-6-fluoronaphthalen-2-ol]	–	> 1000
CCc1c(F)ccc2cc(O)cc(-c3ncc4c(N5CCOCCC5C)nc(OC[C@@]56CCCN5C[C@@]5(CC5(F)F)C6)nc4c3F)c12 (stereo partly drawn) [Example A-37, 4-(2-(((1S,7a'S)-2,2-Difluorodihydro-1′H,3′H-spiro[cyclopropane-1,2′-pyrrolizin]-7a′ (5′H)-yl)methoxy)-8-fluoro-4-(5-methyl-1,4-oxazepan-4-yl)pyrido[4,3-d]pyrimidin-7-yl)-5-ethyl-6-fluoronaphthalen-2-ol]	307	572
CCc1c(F)ccc2cc(O)cc(-c3ncc4c(N5CCC6(COC6)C5)nc(OC[C@@]56CCCN5C[C@@]5(CC5(F)F)C6)nc4c3F)c12 [Example A-21, 4-(2-(((1S,7a'S)-2,2-Difluorodihydro-1′H,3′H-spiro[cyclopropane-1,2′-pyrrolizin]-7a′ (5′H)-yl)methoxy)-8-fluoro-4-(2-oxa-6-azaspiro[3.4]octan-6-yl)pyrido[4,3-d]pyrimidin-7-yl)-5-ethyl-6-fluoronaphthalen-2-ol]	–	> 1000
CCc1c(F)ccc2cc(O)cc(-c3ncc4c(N5CCOCC(F)(F)C5)nc(OC[C@@]56CCCN5C[C@@]5(CC5(F)F)C6)nc4c3F)c12 [Example A-35, 4-(4-(6,6-Difluoro-1,4-oxazepan-4-yl)-2-(((1.S,7a'S)-2,2-difluorodihydro-1′H,3′H-spiro[cyclopropane-1,2′-pyrrolizin]-7a′ (5′H)-yl)methoxy)-8-fluoropyrido[4,3-d]pyrimidin-7-yl)-5-ethyl-6-fluoronaphthalen-2-ol]	159	–
CN(C)C(=O)c1cc2n(n1)CCCN(c1nc(OC[C@]34CCCN3C[C@]3(CC3(F)F)C4)nc3c1CCN(c1cccc4ccc(F)c(Cl)c14)C3)C2 [Example B-16, 5-(7-(8-Chloro-7-fluoronaphthalen-1-yl)-2-(((trans)-2,2-2,2-fluorodihydro-1′H,3′H-spiro[cyclopropane-1,2′-pyrrolizin]-7a′ (5′H)-yl)methoxy)-5,6,7,8-tetrahydropyrido[3,4-d]pyrimidin-4-yl)-N,N-dimethyl-5,6,7,8-tetrahydro-4H-pyrazolo[1,5-a][1,4]diazepine-2-carboxamide]	–	> 1000
CN(C)C(=O)c1cc2n(n1)CCCN(c1nc(OC[C@@]34CCCN3C[C@@]3(CC3(F)F)C4)nc3c1CCN(c1ccc(F)c4sc(N)c(C#N)c14)C3)C2 [Example B-15, 5-(7-(2-Amino-3-cyano-7-fluorobenzo[b]thiophen-4-yl)-2-(((trans)-2,2-fluorodihydro-1′H,3′H-spiro[cyclopropane-1,2′-pyrrolizin]-7a′ (5′H)-yl)methoxy)-5,6,7,8-tetrahydropyrido[3,4-d]pyrimidin-4-yl)-N,N-dimethyl-5,6,7,8-tetrahydro-4H-pyrazolo[1,5-a][1,4]diazepine-2-carboxamide]	–	> 1000
